Earlier results on one compound are cited in patent US20070298107A1, “Pharmaceutical Compositions of Mirtazapine” (AUROBINDO PHARMA LTD., priority 2003, published 2007).

The conditions of the data set: background statement.

`CN1CCN2c3ncccc3Cc3ccccc3C2C1` (stereo not shown) [Mirtazapine]: the solubility in water result is listed as “essentially insoluble”.
